Results as given in patent publication US11026876B2, “Composition for improving skin condition comprising chemokines” (TEGO SCIENCE INC., priority 2016, dated 2021).

Legend:
Assay type in all cases: cell-based
[1] = system: wound on Neoderm®-ED three-dimensional skin culture model; assay: Wound-healing effect (re-epithelialization) in three-dimensional skin culture model; settings: 500 ng/ml chemokine, five days, FIG. 2; for length of re-epithelialization compared to the negative control: 4-mm biopsy punch wound, vs untreated group; for length of re-epithelialization relative to SDF-1α: vs SDF-1α
Experimental: A Neoderm®-ED (TEGO Science, Korea) consisting of the dermis including collagen and fibroblasts and the epidermis including keratinocytes was prepared. A wound was induced on the Neoderm®-ED using a 4-mm biopsy punch, and the wound was treated with a 500 ng/ml chemokine (BLC (CXCL13) or TECK (CCL25)) and incubated in a humid environment of 37° C. and 10% CO2 for five days. The cultured Neoderm®-ED tissue was separated from insert wells and stained with hematoxylin and eosin (H&E staining). The stained tissue was placed on a glass slide and photographed under a microscope. The obtained images were analyzed using Image-Pro™ image analysis software (Media Cybernetics, Inc., United States) to measure a length of re-epithelialization of the wound.

[2] = system: proliferation marker Ki-67; assay: Expression of proliferation marker Ki-67 in three-dimensional skin culture model (immunofluorescence); settings: 100 ng/ml chemokine, 48 hours, Neoderm®-ED, FIGS. 3 and 5; for expression of proliferation marker Ki-67 compared to SDF-1α: vs SDF-1α; for expression of proliferation marker Ki-67 compared to the negative control: vs untreated group
Experimental: (§1) To evaluate the effects of skin regeneration and skin elasticity improvement, a Neoderm®-ED was treated with a 100 ng/ml chemokine (BLC (CXCL13) or TECK (CCL25)) and incubated in a humid environment of 37° C. and 10% CO2 for 48 hours. Then, the Neoderm®-ED was reacted with primary antibodies that bind to markers (i.e., proliferation marker Ki-67 and collagen IV) used to confirm the ability to induce skin regeneration and skin elasticity and then with secondary antibodies labeled with a fluorescent substance. Cell nuclei were stained with 4′,6-diamidino-2-phenylindole (DAPI).

collagen IV = assay: Expression of collagen IV in three-dimensional skin culture model (immunofluorescence); settings: 100 ng/ml chemokine, 48 hours, Neoderm®-ED, FIG. 4; for expression of collagen IV compared to SDF-1α: vs SDF-1α; for expression of collagen IV compared to the negative control: vs untreated group
Experimental: as §1

keratinocytes = assay: Evaluation of chemotaxis of keratinocytes (Transwell insert migration); settings: six hours, FIG. 1; for migration of keratinocytes compared to the negative control: 100 or 500 ng/ml chemokine in lower chamber, vs group not treated with a chemokine; for number of migrated keratinocytes relative to SDF-1α: 100 or 500 ng/ml chemokine, vs SDF-1α positive control
Experimental: The keratinocytes isolated from normal skin tissue were cocultured with 3T3 feeder cells in a DMEM/F12 medium (Invitrogen™, Thermo Fisher Scientific Inc., United States) containing 10% fetal bovine serum (FBS) in a humid environment of 37° C. and 10% CO2. When the cultured cells grew by 70 to 80%, the 3T3 feeder cells were removed and only the keratinocytes were isolated using trypsin-EDTA.
To evaluate chemotaxis of keratinocytes in response to BLC (CXCL13) or TECK (CCL25), cells were cultured using a Transwell® insert (Falcon®, Corning Incorporated, United States) with an opening size of 8 μm, and the number of cells migrated passing through micropores in the insert toward the chemokine were counted. Specifically, the lower chamber of the insert was treated with a chemokine (100 or 500 ng/ml BLC (CXCL13) or 100 or 500 ng/ml TECK (CCL25)), and then cells were placed in wells of the insert in a ratio of 1×10^4 cells per well. After cell incubation in a humid environment of 37° C. and 10% CO2 for six hours, the insert membrane was stained with hematoxylin, and then the number of migrated cells were counted.

B lymphocyte chemoattractant [BLC (CXCL13)]
length of re-epithelialization compared to the negative control [1]: significantly greater length
length of re-epithelialization relative to SDF-1α [1]: at least a three times greater length
expression of proliferation marker Ki-67 compared to SDF-1α [2]: increased more significantly
expression of proliferation marker Ki-67 compared to the negative control [2]: increased
expression of collagen IV compared to SDF-1α (collagen IV): increased more significantly
expression of collagen IV compared to the negative control (collagen IV): increased
migration of keratinocytes compared to the negative control (keratinocytes): increased
number of migrated keratinocytes relative to SDF-1α (keratinocytes): at least five times more

B1: thymus-expressed chemokine (protein, UniProt O15444 24-150, looked up)
C-C motif chemokine 25: QGVFEDCCLAYHYPIGWAVLRRAWTYRIQEVSGSCNLPAAIFYLPKRHRKVCGNPKSREVQRAMKLLDARNKVFAKLHHNTQTFQAGPHAVKKLSSGNSKLSSSKFSNPISSSKRNVSLLISANSGL
length of re-epithelialization compared to the negative control [1]: significantly greater length
length of re-epithelialization relative to SDF-1α [1]: at least a three times greater length
expression of proliferation marker Ki-67 compared to SDF-1α [2]: increased more significantly
expression of proliferation marker Ki-67 compared to the negative control [2]: increased
expression of collagen IV compared to SDF-1α (collagen IV): increased more significantly
expression of collagen IV compared to the negative control (collagen IV): increased
migration of keratinocytes compared to the negative control (keratinocytes): increased
number of migrated keratinocytes relative to SDF-1α (keratinocytes): at least five times more
